The values that follow come from the NIST ThermoML archive (doi:10.1016/j.jct.2007.09.002).

The conditions of the series: Liquid; Ebulliometric method (Recirculating still).

± gives the expanded uncertainty stated by the source.

Regarding `CCO` [ethanol], the Normal boiling temperature is 78.6 ± 0.2 °C.

Regarding `c1ccccc1` [benzene], the Normal boiling temperature worked out at 80 ± 0.2 °C.

For `FC(F)(F)c1ccccc1` [(trifluoromethyl)benzene], the Normal boiling temperature stood at 102.6 ± 0.2 °C.

In the case of `ClC(Cl)Cl` [trichloromethane], the Normal boiling temperature stood at 61.0 ± 0.2 °C.
